For test [1], the system named is oxidative burst in inflammatory cells (reactive oxygen species). As to the kind of experiment: Oxidative burst (ROS, DHR 123 flow cytometry) in leukocytes isolated from brain tissue after mild brain injury (controlled cortical impact). In kind it is in vivo, C57/B6 mice. Here is the method:
FIG. 1 depicts principle of assaying oxidative burst within inflammatory cells. Dihydrorhodamine 123 (DHR 123) diffuses across the cell membrane. When it encounters reactive oxygen species (ROS), DHR 123 is oxidized and fluoresces green. The fluorescence is then measured and presented as arbitrary fluorescence unit (AFU), wherein higher intensity means greater oxidative burst and, therefore greater concentration of amount of ROS (See Chen, et al., Measurement of oxidative burst in neutrophils,” Methods Mol Biol., 844: 115-124 (2012); which is incorporated herein by reference in its entirety).
Ghrelin administration reduces oxidative burst in inflammatory cells following mBI. Since no well-accepted animal model exists for concussions, a very small cerebral lesion that closely mimics mBI is used as a model of mBI. […] Anesthesia is assessed by paw pinch reflex. […]
Animals are separated into three treatment groups: 1) Sham, 2) mBI, and 3) mBI plus ghrelin. […] The fluorescence is then measured and presented as arbitrary fluorescence unit (AFU), wherein higher intensity means greater oxidative burst and, therefore greater concentration or amount of ROS. […] Oxidative burst, which is a marker for ROS, can be measured by flow cytometry (e.g., FL1 channel with 488-nm laser).

Test [2] relates to blood brain barrier (BBB) vascular permeability; Aquaporin 4 (AQP-4). The test can be described thus: Ghrelin treatment of TBI animals (background statement): BBB vascular permeability and Aquaporin 4 expression. Particulars: following TBI. The class given is in vivo.

Entries after “also recorded” stand apart in the source; their conditions may differ. Ends that are not written are not given here.

On to “Gly-Ser-Ser-Phe-Leu-Ser-Pro-Glu-His-Gln-Arg-Val-Gln-Gln-Arg-Lys-Glu-Ser-Lys-Lys-Pro-Pro-Ala-Lys-Leu-Gln-Pro-Arg (SEQ ID NO. 1) (GSSFLSPEHQRVQQRKESKKPPAKLQPR; not fully specified (residues 2, 3); printed as Gly-Ser-Ser-Phe-Leu-Ser-Pro-Glu-His-Gln-Arg-Val-Gln-Gln-Arg-Lys-Glu-Ser-Lys-Lys-Pro-Pro-Ala-Lys-Leu-Gln-Pro-Arg; also: octanoyl on Ser2 and/or Ser3 stated only as an option; listed as Homo sapiens) [ghrelin, 28-amino acid peptide, neuroendocrine hormone, endogenous ligand for growth hormone secretagogue receptor; obtainable from Phoenix Pharmaceuticals]”, for which the “Oxidative burst of ipsilateral whole brain following mild BI (mean fluorescence intensity)” value in test [1] (mild BI+ghrelin (2 doses), subcutaneous 10 μg following mBI and 10 μg 1 hour after, vs 7963 AFU±2900 mild BI and 4624 AFU±1858 sham, n=5, p=0.048) amounted to 3257 AFU. Besides, the “Oxidative burst in inflammatory cells following mBI (FIG. 2, peak shift)” value in test [1] (subcutaneous ghrelin vs untreated mBI, n=3 animals in each group) is “reduced the oxidative burst; also recorded: lower oxidative burst”. In addition, in test [2], the “Post-TBI up-regulation of Aquaporin 4 (AQP-4)” value is recorded as “prevents post-TBI up-regulation of Aquaporin 4”.

The record behind these values is patent US11241483B2, “Methods of treating mild brain injury” (The Regents of the University of California, priority 2014, dated 2022).
